Legend:
[1] = biological target: Angiotensin-converting enzyme (Rattus norvegicus) (UniProt P47820); assay: In vitro inhibitory activity against angiotensin converting enzyme (ACE) in rat was determined; details: read-out: I50
[2] = system: Rattus norvegicus; assay: In vivo effective dose against angiotensin I induced pressor response after intravenous administration in normotensive rats; type: functional
[3] = biological target: Neprilysin (Homo sapiens, UniProt P08473); assay: In vitro inhibitory activity against neutral endopeptidase (NEP) was determined; details: read-out: I50
Neprilysin, sequence (P08473 whole entry): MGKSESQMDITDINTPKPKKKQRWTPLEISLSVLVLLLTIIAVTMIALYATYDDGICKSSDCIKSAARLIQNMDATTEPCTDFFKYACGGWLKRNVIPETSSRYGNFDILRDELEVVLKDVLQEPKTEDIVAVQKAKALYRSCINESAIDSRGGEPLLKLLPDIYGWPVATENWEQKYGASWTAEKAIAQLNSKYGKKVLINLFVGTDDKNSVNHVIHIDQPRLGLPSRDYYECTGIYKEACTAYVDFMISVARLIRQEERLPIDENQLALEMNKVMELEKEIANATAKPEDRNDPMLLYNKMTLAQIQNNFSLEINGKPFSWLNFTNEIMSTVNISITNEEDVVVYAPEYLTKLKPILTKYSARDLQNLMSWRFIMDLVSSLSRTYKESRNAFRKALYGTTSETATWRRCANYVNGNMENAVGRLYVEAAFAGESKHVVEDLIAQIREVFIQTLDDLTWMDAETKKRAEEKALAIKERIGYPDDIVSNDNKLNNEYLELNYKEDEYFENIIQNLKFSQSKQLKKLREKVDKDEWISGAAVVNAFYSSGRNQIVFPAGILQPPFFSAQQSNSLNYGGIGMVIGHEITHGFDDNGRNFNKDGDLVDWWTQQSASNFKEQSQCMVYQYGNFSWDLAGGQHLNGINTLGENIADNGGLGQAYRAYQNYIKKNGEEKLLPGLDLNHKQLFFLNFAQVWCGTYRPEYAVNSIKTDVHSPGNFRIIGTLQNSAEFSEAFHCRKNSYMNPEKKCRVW

Angiotensin-converting enzyme (Rattus norvegicus), sequence (P47820 whole entry, looked up): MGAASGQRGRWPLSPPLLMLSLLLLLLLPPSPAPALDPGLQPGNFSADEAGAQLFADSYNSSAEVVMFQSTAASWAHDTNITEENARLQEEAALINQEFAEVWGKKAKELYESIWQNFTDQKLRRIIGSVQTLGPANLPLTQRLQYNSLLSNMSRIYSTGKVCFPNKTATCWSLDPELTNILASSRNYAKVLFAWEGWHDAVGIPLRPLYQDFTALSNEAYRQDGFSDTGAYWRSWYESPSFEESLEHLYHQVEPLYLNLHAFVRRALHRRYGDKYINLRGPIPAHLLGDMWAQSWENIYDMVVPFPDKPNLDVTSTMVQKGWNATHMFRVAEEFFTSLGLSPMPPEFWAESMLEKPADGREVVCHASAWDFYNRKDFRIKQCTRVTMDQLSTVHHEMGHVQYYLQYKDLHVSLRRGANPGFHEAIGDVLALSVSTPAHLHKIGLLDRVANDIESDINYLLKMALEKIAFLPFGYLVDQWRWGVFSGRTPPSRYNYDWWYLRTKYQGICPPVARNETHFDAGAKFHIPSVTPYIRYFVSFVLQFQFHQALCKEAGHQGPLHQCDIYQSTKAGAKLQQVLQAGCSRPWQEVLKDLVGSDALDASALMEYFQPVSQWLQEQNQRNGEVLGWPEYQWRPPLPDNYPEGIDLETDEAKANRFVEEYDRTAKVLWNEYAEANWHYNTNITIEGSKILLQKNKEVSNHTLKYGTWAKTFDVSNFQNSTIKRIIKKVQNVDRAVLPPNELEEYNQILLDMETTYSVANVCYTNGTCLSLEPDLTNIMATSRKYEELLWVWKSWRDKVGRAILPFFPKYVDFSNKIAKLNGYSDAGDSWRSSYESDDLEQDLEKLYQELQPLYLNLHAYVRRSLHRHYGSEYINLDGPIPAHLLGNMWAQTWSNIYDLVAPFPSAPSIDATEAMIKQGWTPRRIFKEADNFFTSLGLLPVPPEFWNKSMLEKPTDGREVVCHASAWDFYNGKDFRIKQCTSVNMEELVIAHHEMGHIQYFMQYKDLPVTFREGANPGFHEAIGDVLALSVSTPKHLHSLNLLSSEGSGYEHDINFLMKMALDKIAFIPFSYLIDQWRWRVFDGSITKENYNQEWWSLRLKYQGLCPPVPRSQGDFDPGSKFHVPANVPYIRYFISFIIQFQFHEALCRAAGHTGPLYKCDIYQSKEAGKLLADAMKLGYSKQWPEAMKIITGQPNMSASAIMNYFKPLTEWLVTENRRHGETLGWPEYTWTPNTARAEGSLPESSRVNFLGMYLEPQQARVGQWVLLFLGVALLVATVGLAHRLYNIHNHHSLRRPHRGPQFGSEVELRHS

Structure (SMILES) | IC50 [1] | IC50 [3] | ED50 [2]
O=C(O)CN1C(=O)[C@@H](NC(=O)[C@@H](S)Cc2ccccc2)CCc2ccccc21 | 12 nM |  | 0.02 µmol/kg
CN1C(=O)CC[C@H](NC(=O)[C@@H](S)Cc2ccccc2)C(=O)N1CC(=O)O |  | 55 nM | 0.13 µmol/kg
O=C(N[C@H]1CCC(=O)N2CC[C@@H](C(=O)O)N2C1=O)[C@@H](S)Cc1ccccc1 |  | 140 nM | 
CCCN1CCC[C@H](NC(=O)[C@@H](S)Cc2ccccc2)C(=O)N1CC(=O)O |  | 1490 nM | 
CCCN1C(=O)CC[C@H](NC(=O)[C@@H](S)Cc2ccccc2)C(=O)N1CC(=O)O |  | 1920 nM | 
O=C(N[C@H]1CCCN2CC[C@@H](C(=O)O)N2C1=O)[C@@H](S)Cc1ccccc1 |  | 22 nM | 0.12 µmol/kg
O=C(N[C@H]1CCC(=O)N2CCC[C@@H](C(=O)O)N2C1=O)[C@@H](S)Cc1ccccc1 |  | 16 nM | 0.23 µmol/kg

Second part, led by results:

IC50 [1] | IC50 [3] | Structure (SMILES) | ED50 [2]
 | 486 nM | O=C(O)CN1NCCC[C@H](NC(=O)[C@@H](S)Cc2ccccc2)C1=O | 
 | 484 nM | CN1CCC[C@H](NC(=O)[C@@H](S)Cc2ccccc2)C(=O)N1CC(=O)O | 
 | 3 nM | O=C(N[C@H]1CCCN2CCC[C@@H](C(=O)O)N2C1=O)[C@@H](S)Cc1ccccc1 | 0.01 µmol/kg

Source: ChEMBL document CHEMBL1127958, “Dual metalloprotease inhibitors. III. utilization of bicyclic and monocyclic diazepinone based mercaptoacetyls” (Bioorg Med Chem Lett, 1994)
